Results on twelve compounds are retold here after US9187464B2, “TRPV4 antagonists” (GlaxoSmithKline Intellectual Property (No. 2) Limited, priority 2011, dated 2015).

Usually IC50 stands for the concentration that inhibits the measured activity by half.

The structures appear in SMILES notation.

The experiment concerns the target T1, human TRPV4 (Homo sapiens, UniProt Q9HBA0).
T1 construct: expressed in transfected cells; host or cells: HEK-293-MSR-II cells transduced with 1% BacMam virus
The experiment is described as follows: Ligand-gated assay (Fluo4 calcium, FLIPR; inhibition of agonist-induced activation). It counts as cell-based. As to conditions: HEK-293-MSR-II cells transduced with BacMam human TRPV4; agonist at EC80. In a few lines: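 Agonist (EC80) response read on FLIPR as Fluo-4 (2 uM) fluorescence after 10-min room-temperature compound exposure in HBSS/HEPES pH 7.4 with 0.01% Chaps. Cells: HEK-293-MSR-II expressing human TRPV4 via BacMam; output is IC50 of inhibition.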

T1 sequence (Q9HBA0 whole entry): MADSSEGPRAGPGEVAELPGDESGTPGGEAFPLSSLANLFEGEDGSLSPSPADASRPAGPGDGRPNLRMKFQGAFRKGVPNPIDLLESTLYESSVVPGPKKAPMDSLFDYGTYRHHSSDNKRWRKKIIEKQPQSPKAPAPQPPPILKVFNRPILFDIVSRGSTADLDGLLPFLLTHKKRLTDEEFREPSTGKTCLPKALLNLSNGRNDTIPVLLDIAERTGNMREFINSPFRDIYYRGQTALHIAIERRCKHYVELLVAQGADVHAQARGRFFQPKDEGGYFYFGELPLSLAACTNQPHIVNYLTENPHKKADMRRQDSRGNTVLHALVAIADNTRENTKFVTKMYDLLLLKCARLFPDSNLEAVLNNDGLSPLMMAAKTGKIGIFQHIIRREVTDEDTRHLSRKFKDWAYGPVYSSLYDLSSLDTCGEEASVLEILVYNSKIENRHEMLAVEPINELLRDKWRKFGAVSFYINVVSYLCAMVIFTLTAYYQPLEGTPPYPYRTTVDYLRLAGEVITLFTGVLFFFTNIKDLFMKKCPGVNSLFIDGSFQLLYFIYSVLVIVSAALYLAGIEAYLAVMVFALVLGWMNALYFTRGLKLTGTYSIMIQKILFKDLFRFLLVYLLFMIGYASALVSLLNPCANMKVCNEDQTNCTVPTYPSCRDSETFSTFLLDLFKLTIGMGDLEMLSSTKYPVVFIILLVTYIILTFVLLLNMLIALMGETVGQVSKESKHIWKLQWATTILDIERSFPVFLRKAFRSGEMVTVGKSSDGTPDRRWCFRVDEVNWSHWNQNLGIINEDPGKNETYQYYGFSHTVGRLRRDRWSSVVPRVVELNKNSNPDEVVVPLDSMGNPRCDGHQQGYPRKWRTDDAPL

On to `CC(C)(O)c1ncc(N2C[C@@]3(CCC[C@](C)(Cn4cnc5ccc(C#N)cc54)C3)OC2=O)cn1` [Example 148, 1-(((5S,7S)-3-(2-(2-hydroxypropan-2-yl)pyrimidin-5-yl)-7-methyl-2-oxo-1-oxa-3-azaspiro[4.5]decan-7-yl)methyl)-1H-benzo[d]imidazole-6-carbonitrile], for which the half-inhibitory concentration (IC50) was in the range of 10 to 50 nM. `COc1ccncc1N1C[C@@]2(CCC[C@](C)(Cn3cnc4ccc(C#N)cc43)C2)OC1=O` [Example 149, 1-(((5S,7S)-3-(4-methoxypyridin-3-yl)-7-methyl-2-oxo-1-oxa-3-azaspiro[4.5]decan-7-yl)methyl)-1H-benzo[d]imidazole-6-carbonitrile]: the half-inhibitory concentration (IC50) is 50 to 500 nM. On to `CN(C)c1cnc(N2C[C@@]3(CCC[C@](C)(Cn4cnc5ccc(C#N)cc54)C3)OC2=O)cn1` [Example 150, 1-(((5S,7S)-3-(5-(dimethylamino)pyrazin-2-yl)-7-methyl-2-oxo-1-oxa-3-azaspiro[4.5]decan-7-yl)methyl)-1H-benzo[d]imidazole-6-carbonitrile], for which the half-inhibitory concentration (IC50) was in the range of 50 to 500 nM. To `N#Cc1ccc2ncn(C[C@H]3CCC[C@]4(C3)CN(Cc3csc5ncccc35)C(=O)O4)c2c1` [Example 151, 1-{[(5S,7S)-2-oxo-3-(thieno[2,3-b]pyridin-3-ylmethyl)-1-oxa-3-azaspiro[4.5]dec-7-yl]methyl}-1H-benzimidazole-6-carbonitrile] belongs 50 to 500 nM; to `N#Cc1ccc2ncn(C[C@H]3CCC[C@]4(C3)CN(Cc3sc5ncccc5c3Br)C(=O)O4)c2c1` [Example 153], 0.1 to 10 nM. On to `COC(C)c1noc(C(C)(C)CN2C[C@@]3(CCC[C@H](Cn4cnc5ccc(C#N)cc54)C3)OC2=O)n1` (stereo partly drawn) [Example 154, 1-{[(5S,7S)-3-(2-methyl-2-{3-[1-(methyloxy)ethyl]-1,2,4-oxadiazol-5-yl}propyl)-2-oxo-1-oxa-3-azaspiro[4.5]dec-7-yl]methyl}-1H-benzimidazole-6-carbonitrile], for which the IC50 fell in the range of 0.1 to 10 nM. In the case of `CCOc1cnc(CN2C[C@@]3(CCC[C@](C)(Cn4cnc5ccc(C#N)cc54)C3)OC2=O)cn1` [Example 155], the 50% inhibitory concentration (IC50) fell in the range of 0.1 to 10 nM. In the case of `CCOc1ccnc(CN2C[C@@]3(CCC[C@](C)(Cn4cnc5ccc(C#N)cc54)C3)OC2=O)c1` [Example 156, 1-(((5S,7S)-3-((4-ethoxypyridin-2-yl)methyl)-7-methyl-2-oxo-1-oxa-3-azaspiro[4.5]decan-7-yl)methyl)-1H-benzo[d]imidazole-6-carbonitrile], the IC50 lay in the range of 0.1 to 10 nM. As for `C[C@]1(Cn2cnc3ccc(C#N)cc32)CCC[C@@]2(CN(Cc3ccc(F)cn3)C(=O)O2)C1` [Example 159, 1-(((5S,7S)-3-((5-fluoropyridin-2-yl)methyl)-7-methyl-2-oxo-1-oxa-3-azaspiro[4.5]decan-7-yl)methyl)-1H-benzo[d]imidazole-6-carbonitrile], the 50% inhibitory concentration (IC50) was 0.1 to 10 nM.

Regarding `Cn1cc(-c2ccnc(CN3C[C@@]4(CCC[C@](C)(Cn5cnc6ccc(C#N)cc65)C4)OC3=O)c2)cn1` [Example 160, 1-(((5S,7S)-7-methyl-3-((4-(1-methyl-1H-pyrazol-4-yl)pyridin-2-yl)methyl)-2-oxo-1-oxa-3-azaspiro[4.5]decan-7-yl)methyl)-1H-benzo[d]imidazole-6-carbonitrile], the IC50 is 0.1 to 10 nM. Consider `Cn1cc(-c2cccc(CN3C[C@@]4(CCC[C@](C)(Cn5cnc6ccc(C#N)cc65)C4)OC3=O)n2)cn1` [Example 161, 1-(((5S,7S)-7-methyl-3-((6-(1-methyl-1H-pyrazol-4-yl)pyridin-2-yl)methyl)-2-oxo-1-oxa-3-azaspiro[4.5]decan-7-yl)methyl)-1H-benzo[d]imidazole-6-carbonitrile], for which the IC50 lay within 0.1 to 10 nM. In the case of `COC(C)(C)c1cnc(N2C[C@@]3(CCC[C@](C)(Cn4cnc5ccc(C#N)cc54)C3)OC2=O)cn1` [Example 162, 1-(((5S,7S)-3-(5-(2-methoxypropan-2-yl)pyrazin-2-yl)-7-methyl-2-oxo-1-oxa-3-azaspiro[4.5]decan-7-yl)methyl)-1H-benzo[d]imidazole-6-carbonitrile] it was 0.1 to 10 nM.
